Source: patent publication US20050032145A1, “Methods for measuring activity of glutamine:fructose 6-phosphate amidotransferase and activity of inhibitors thereof” (priority 2002, published 2005)
pIC50: −log10 of the molar value.

Assays:
Assay type in all cases: biochemical
GFAT-beta [1] = target: T1, GFAT-beta (Homo sapiens, UniProt O94808); test: GFAT inhibition, microtiter plate glucosamine 6-phosphate assay (GFAT-beta)
T1 construct: made in house; host or cells: SF9 insect cells (sonicated, centrifuged cell extract)
Description: For measurement of […], the GFAT enzyme reaction and analysis of the product are preferably carried out directly in a microtiter plate. The preferred reaction volume of 100 μl consists of the substrates glutamine (10 mM) and fructose 6-phosphate (10 mM), phosphate buffered saline (PBS) pH 7.4, ethylenediaminetetraacetic acid (EDTA) (5 mM), dithiothreitol (DTT) (1 mM), and the GFAT enzyme preparation or tissue extract (0.25-50 μl). The incubation mixture is added to the plate, the plate sealed, and placed floating on a 37° C. water bath for 1 hour. Additional incubation mixture is kept on ice to add to standard and control samples. After incubation, non-incubated control and glucosamine 6-phosphate standards of 2.5 to 30 nmoles along with the cold incubator mixture are added to the appropriate wells in the plate. The glucosamine 6-phosphate produced in the incubation mixtures is acetylated by first adding acetic anhydride 1.5% in acetone (10 μl), followed by potassium tetraborate 200 mM (50 μl). The plate is sealed, shaken for 2 minutes on a microshaker, and placed on an 80° C. water bath for 25 minutes. […] The plate is then placed on a 37° C. water bath for 20 minutes and the OD determined at 500-610 nm, preferably 585 nm.
The reaction mixture is made including enough for standard curve samples and kept on ice. […] The OD is determined at 585 nm. […]

GFAT-alpha = target: T2, GFAT-alpha (Homo sapiens, UniProt Q06210); test: GFAT inhibition, microtiter plate glucosamine 6-phosphate assay (GFAT-alpha); conditions: enzyme expressed in SF9 insect cells; 60 minutes at 37° C.; OD 585 nm; read-out: IC50 (concentration inhibiting 50% of maximum stimulation), GFAT-alpha
T2 construct: made in house; host or cells: SF9 insect cells (sonicated, centrifuged cell extract)
Description: For measurement of […], the GFAT enzyme reaction and analysis of the product are preferably carried out directly in a microtiter plate. The preferred reaction volume of 100 μl consists of the substrates glutamine (10 mM) and fructose 6-phosphate (10 mM), phosphate buffered saline (PBS) pH 7.4, ethylenediaminetetraacetic acid (EDTA) (5 mM), dithiothreitol (DTT) (1 mM), and the GFAT enzyme preparation or tissue extract (0.25-50 μl). The incubation mixture is added to the plate, the plate sealed, and placed floating on a 37° C. water bath for 1 hour. Additional incubation mixture is kept on ice to add to standard and control samples. After incubation, non-incubated control and glucosamine 6-phosphate standards of 2.5 to 30 nmoles along with the cold incubator mixture are added to the appropriate wells in the plate. The glucosamine 6-phosphate produced in the incubation mixtures is acetylated by first adding acetic anhydride 1.5% in acetone (10 μl), followed by potassium tetraborate 200 mM (50 μl). The plate is sealed, shaken for 2 minutes on a microshaker, and placed on an 80° C. water bath for 25 minutes. The plate is cooled by placing it on ice for 5 minutes and then Ehrlich's reagent is added (130 μl) (2 g Ehrlich's reagent+0.3 ml water+2.2 ml concentrated hydrochloric acid+17.4 ml acetic acid which is diluted 1:2 in acetic acid before use). The plate is then placed on a 37° C. water bath for 20 minutes and the OD determined at 500-610 nm, preferably 585 nm.
The reaction mixture is made including enough for standard curve samples and kept on ice. The reaction is started by adding the incubation reagents to the microtiter plate, sealing the plate, and placing the plate in a water bath at 37° C. for 1 hr. Standard curve samples are added to the plate, 2.5 to 30 nmoles/well/10 μl, and the cold mix added to control and standard curve samples. Glucosamine 6-phosphate is acetylated with acetic anhydride 1.5%/acetone 10 μl+potassium tetraborate 200 mM 50 μl, by sealing the plate, shaking for 2 minutes and placing on an 80° C. water bath for 25 minutes, then cooling on ice for 5 minutes. Diluted Ehrlich's reagent 130 μl is added and the plate placed on a 37° C. water bath for 20 minutes. The OD is determined at 585 nm.
Stimulation of GFAT activity. […] For most testing, a 60-minute incubation at 37° C. is carried out in 96 well microtiter plates. To give the best heat transfer the plates are sealed with a Costar plate sealer and floated on a 37° C. water bath. Air bubbles are removed from the bottom of the plate to ensure proper heat transfer to all wells. The 100 μl reaction volume consists of glutamine 10 mM, fructose 6-phosphate 10 mM, PBS 1×, EDTA 5 mM DTT 1 mM, and the enzyme preparation. […]

GFAT-beta [2] = target: T1, GFAT-beta; test: Substrate Km determination, Lineweaver-Burk plot (GFAT-beta); conditions: extracts from transfected SF9 insect cells, other substrate at saturating levels
Description: FIG. 3 illustrates the effect of varying concentrations of the substrates glutamine and fructose 6-phosphate on the enzyme activity of GFAT-alpha and GFAT-beta. FIG. 3A is a graph illustrating incubation with 10 μl glutamine 200 mM+10 μl fructose 6-phosphate 3.125, 6.25, 12.5, 25, 50, 100, and 200 mM. FIG. 3B is a graph illustrating incubation with 10 μl fructose 6-phosphate 200 mM+10 μl glutamine 3.125, 6.25, 12.5, 25, 50, 100, and 200 mM. 10 μl of GFAT-alpha and 5 μl of GFAT-beta extracts from transfected SF9 insect cells are incubated with 1) 10 μl glutamine 200 mM+10 μl fructose 6-phosphate 3.125, 6.25, 12.5, 25, 50, 100, and 200 mM, and 2) 10 μl fructose 6-phosphate 200 mM+10 μl glutamine 3.125, 6.25, 12.5, 25, 50, 100, and 200 mM in an incubation media containing 10 μl PBS 10×, 10 μl EDTA 50 mM, 10 μl, DTT 10 mM and water to 100 μl. The plate is sealed with a Costar plate sealer and incubated for 60 minutes at 37° C. by floating on a water bath. Additional incubation mixture is kept on ice to add to standard and control samples. […] After a 20-minute incubation at 37° C., the OD is determined for each well at 585 nm. […]
FIG. 3C is a table illustrating the Km values of the substrates for the GFAT-alpha and GFAT-beta enzymes calculated from the data generated in FIGS. 3A and 3B. […]

T2 sequence (Q06210 1-681 isoform Q06210-2 I57T): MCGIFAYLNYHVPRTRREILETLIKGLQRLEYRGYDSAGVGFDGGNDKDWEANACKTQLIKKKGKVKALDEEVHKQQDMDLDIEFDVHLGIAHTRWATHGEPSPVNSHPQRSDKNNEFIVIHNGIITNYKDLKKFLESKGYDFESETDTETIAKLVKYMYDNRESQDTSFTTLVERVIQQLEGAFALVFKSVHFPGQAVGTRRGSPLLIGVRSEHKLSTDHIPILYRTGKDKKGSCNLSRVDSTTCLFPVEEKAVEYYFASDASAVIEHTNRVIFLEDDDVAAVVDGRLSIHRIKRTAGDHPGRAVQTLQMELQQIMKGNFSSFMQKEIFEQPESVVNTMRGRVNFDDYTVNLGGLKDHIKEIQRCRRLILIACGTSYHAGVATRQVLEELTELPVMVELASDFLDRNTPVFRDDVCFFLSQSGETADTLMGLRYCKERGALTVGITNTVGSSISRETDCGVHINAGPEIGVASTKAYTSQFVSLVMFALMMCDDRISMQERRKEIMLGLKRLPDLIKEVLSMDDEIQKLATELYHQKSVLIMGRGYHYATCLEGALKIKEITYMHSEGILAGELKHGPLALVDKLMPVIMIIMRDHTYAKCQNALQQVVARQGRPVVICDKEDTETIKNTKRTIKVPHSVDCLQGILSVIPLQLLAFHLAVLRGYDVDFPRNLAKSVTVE
T1 sequence (O94808 whole entry): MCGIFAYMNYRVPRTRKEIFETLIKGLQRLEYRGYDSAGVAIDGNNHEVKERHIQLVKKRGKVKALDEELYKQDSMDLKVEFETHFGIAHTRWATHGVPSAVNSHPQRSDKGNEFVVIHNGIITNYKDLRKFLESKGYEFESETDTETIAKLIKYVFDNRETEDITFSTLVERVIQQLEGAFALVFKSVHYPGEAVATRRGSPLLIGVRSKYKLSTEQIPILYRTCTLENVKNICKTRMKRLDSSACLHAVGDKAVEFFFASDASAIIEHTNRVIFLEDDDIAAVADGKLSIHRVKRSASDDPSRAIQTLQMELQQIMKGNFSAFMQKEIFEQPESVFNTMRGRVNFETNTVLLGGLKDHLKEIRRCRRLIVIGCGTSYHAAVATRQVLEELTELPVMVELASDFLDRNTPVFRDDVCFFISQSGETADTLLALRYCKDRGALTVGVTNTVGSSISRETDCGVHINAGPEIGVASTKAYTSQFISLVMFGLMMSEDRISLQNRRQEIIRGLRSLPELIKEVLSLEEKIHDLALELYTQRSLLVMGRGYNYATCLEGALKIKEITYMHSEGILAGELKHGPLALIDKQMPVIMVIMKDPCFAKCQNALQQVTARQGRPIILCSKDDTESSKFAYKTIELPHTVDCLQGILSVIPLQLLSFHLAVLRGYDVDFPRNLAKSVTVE

| Km (GFAT-beta [2]) [mM] | Compound | pIC50 (GFAT-alpha) | other results |
| --- | --- | --- | --- |
| – | uridine-diphosphate-N-acetylglucosamine [UDP-N-acetylglucosamine] | 5.10 | pIC50 (GFAT-beta [1]; enzyme expressed in SF9 insect cells, 60 minutes at 37° C., OD 585 nm, read-out: IC50 (concentration inhibiting 50% of maximum stimulation), GFAT-beta): 4.00; times as much required to inhibit GFAT-beta compared with GFAT-alpha (GFAT-beta [1]; ratio of IC50 GFAT-beta to GFAT-alpha): more than 12 times |
| – | N[C@@H](CNC(=O)CBr)C(=O)O [N3-(bromoacetyl)-L-2,3-diaminopropanoic acid] | 6.42 | – |
| – | COC(=O)/C=C/C(=O)NC[C@H](N)C(=O)O [FMDP, N3-(-4-methoxyfumaroyl)-L-2,3-diaminopropanoic acid] | 5.40 | – |
| 6.8 | O=C(CO)[C@@H](O)[C@H](O)[C@H](O)COP(=O)(O)O [fructose 6-phosphate] | – | – |
| 1.99 | NC(=O)CC[C@H](N)C(=O)O [glutamine] | – | – |
| – | [N-]=[N+]=CC(=O)CC[C@H](N)C(=O)O [DON, 6-diazo-5-oxo-L-norleucine] | 4.74 | – |
